According to ChEMBL document CHEMBL3865833, “Functional induction of P-glycoprotein efflux pump by phenyl benzenesulfonamides: Synthesis and biological evaluation of T0901317 analogs” (Eur J Med Chem, 2016):
Activity calls are given as the source filed them. No cut-off for these calls is given here.

Tests used:
[1] = Cytotoxicity against human SH-SY5Y cells assessed as effect on cell viability at 50 uM measured after 24 hrs by MTT assay relative to control; format: toxicity, cell-based; details: read-out: Activity
LS180 [2] = test: (§1) Activation of PXR/LXR in human LS180 cells assessed as induction of P-gp measured as intracellular accumulation of Rhodamine-123 at 5 uM preincubated for 48 hrs followed by 40 mins incubation with HANKS buffer and subsequent addition of Rhodamine-123 measured after 90 mins by fluorescence analysis relative to control; format: cell-based
[3] = Cytotoxicity against human LS180 cells assessed as effect on cell viability at 50 uM measured after 24 hrs by MTT assay relative to control; format: toxicity, cell-based; details: read-out: Activity
[4] = Therapeutic index, ratio of effective concentration for cytotoxicity in human SH-SY5Y cells to effective concentration for activation of PXR/LXR in human LS180 cells assessed as induction of P-gp; format: cell-based; details: read-out: TI
[5] = Therapeutic index, ratio of effective concentration for cytotoxicity in human LS180 cells to effective concentration for activation of PXR/LXR in human LS180 cells assessed as induction of P-gp; format: cell-based; details: read-out: TI
LS180 [6] = test: as §1, with “by measuring decrease in” for “measured as”, “0.3” for “5”, “assay” for “analysis relative to control”; format: cell-based
[7] = Cytotoxicity against human LS180 cells assessed as effect on cell viability measured after 24 hrs by MTT assay; format: toxicity, cell-based
[8] = Cytotoxicity against human SH-SY5Y cells assessed as effect on cell viability measured after 24 hrs by MTT assay; format: toxicity, cell-based
LS180 [9] = test: Activation of PXR/LXR in human LS180 cells assessed as induction of P-gp at 5 uM measured after 24 hrs by Western blot analysis; format: cell-based

| SMILES | viability at 24 h, 50 µM [1] | Activity (LS180 [2]) | viability at 24 h, 50 µM [3] | selectivity ratio [4] | selectivity ratio [5] | Activity (LS180 [6]) | IC50 at 24 h [7] | IC50 at 24 h [8] | Activity (LS180 [9]) |
| --- | --- | --- | --- | --- | --- | --- | --- | --- | --- |
| O=S(=O)(c1ccccc1)N(Cc1cn(-c2ccccc2)nn1)c1ccc(C(O)(C(F)(F)F)C(F)(F)F)cc1 | 39.5% | 87.9% | 46.4% | 10 | 10 |  |  |  |  |
| O=S(=O)(c1ccccc1)N(Cc1cn(-c2ccc(C(F)(F)F)cc2)nn1)c1ccc(C(O)(C(F)(F)F)C(F)(F)F)cc1 | 49.8% | 70.2% | 62.8% | 10 | 10 |  |  |  |  |
| CC(=O)c1ccc(N(Cc2ccccc2)S(=O)(=O)c2ccccc2)cc1 | 112% | 64.5% | 89.5% |  | 10 |  |  |  |  |
| O=S(=O)(c1ccccc1)N(CC(F)(F)F)c1ccc(C(O)(C(F)(F)F)C(F)(F)F)cc1 [T091317] | 94.8% | 64.2% | 73.3% | 10 | 10 | Active | > 50 µM | > 50 µM | Active |
| CC(=O)c1ccc(N(Cc2cn(-c3ccccc3F)nn2)S(=O)(=O)c2ccccc2)cc1 | 93.6% | 55.7% | 83.8% | 10 |  |  |  |  |  |
| CC(=O)c1ccc(N(Cc2cn(-c3c(C)cccc3C)nn2)S(=O)(=O)c2ccccc2)cc1 | 80.4% | 58.4% | 60.6% | 10 | 10 |  |  |  |  |
| O=S(=O)(c1ccccc1)N(Cc1cn(-c2ccccc2F)nn1)c1ccc(C(O)(C(F)(F)F)C(F)(F)F)cc1 | 129% | 61.8% | 65.1% | 10 | 10 | Active |  |  |  |
| C#CCN(c1ccc(C(O)(C(F)(F)F)C(F)(F)F)cc1)S(=O)(=O)c1ccccc1 | 112% | 60.8% | 89.5% | 10 | 10 |  |  |  |  |
| CC(=O)c1ccc(N(CC(F)(F)F)S(=O)(=O)c2ccccc2)cc1 | 81.3% | 63.5% | 88.3% |  | 10 |  |  |  |  |
| CC(=O)c1ccc(N(Cc2cn(-c3ccc(C(C)=O)cc3)nn2)S(=O)(=O)c2ccccc2)cc1 | 97.3% | 66.2% | 87.3% | 10 | 10 |  |  |  |  |
| CC(=O)c1ccc(N(Cc2cn(-c3ccc(OC(F)(F)F)cc3)nn2)S(=O)(=O)c2ccccc2)cc1 | 64.4% | 83.4% | 67.6% | 10 | 10 |  |  |  |  |
| C#CCOC(c1ccc(N(CC#C)S(=O)(=O)c2ccccc2)cc1)(C(F)(F)F)C(F)(F)F | 88.7% | 79.7% | 78.7% | 10 | 10 |  |  |  |  |
| CC(=O)c1ccc(N(Cc2cn(-c3ccc(C(O)(C(F)(F)F)C(F)(F)F)cc3)nn2)S(=O)(=O)c2ccccc2)cc1 | 123% | 87.4% | 103% |  |  |  |  |  |  |
| CC(=O)c1ccc(N(Cc2cn(-c3ccc(F)cc3)nn2)S(=O)(=O)c2ccccc2)cc1 | 90.4% | 55.9% | 60% | 10 |  |  |  |  |  |
| CC(=O)c1ccc(N(Cc2cn(-c3ccccc3C)nn2)S(=O)(=O)c2ccccc2)cc1 | 92.9% | 65.1% | 64.4% | 10 | 10 |  |  |  |  |
| CC(=O)c1ccc(N(Cc2cn(-c3ccc(Cl)cc3)nn2)S(=O)(=O)c2ccccc2)cc1 | 74.4% | 68.8% | 88.1% |  | 10 |  |  |  |  |
| O=S(=O)(c1ccccc1)N(Cc1cn(-c2ccc(F)cc2F)nn1)c1ccc(C(O)(C(F)(F)F)C(F)(F)F)cc1 | 86.5% | 66.3% | 93.6% | 10 |  |  |  |  |  |
| COc1ccc(-n2cc(CN(c3ccc(C(C)=O)cc3)S(=O)(=O)c3ccccc3)nn2)cc1 | 88.5% | 86.3% | 93.3% | 10 | 10 |  |  |  |  |
| CC(=O)c1ccc(N(Cc2cn(-c3ccc([N+](=O)[O-])cc3)nn2)S(=O)(=O)c2ccccc2)cc1 | 105% | 55.6% | 74.7% | 10 | 10 |  |  |  |  |

| SMILES | viability at 24 h, 50 µM [1] | Activity (LS180 [2]) | viability at 24 h, 50 µM [3] | selectivity ratio [4] | selectivity ratio [5] | Activity (LS180 [6]) | IC50 at 24 h [7] | IC50 at 24 h [8] | Activity (LS180 [9]) |
| --- | --- | --- | --- | --- | --- | --- | --- | --- | --- |
| CC(=O)c1ccc(N(Cc2cn(-c3cccc([N+](=O)[O-])c3)nn2)S(=O)(=O)c2ccccc2)cc1 | 74.2% | 71.6% | 112% | 10 | 10 |  |  |  |  |
| Cc1ccc(C)c(-n2cc(CN(c3ccc(C(O)(C(F)(F)F)C(F)(F)F)cc3)S(=O)(=O)c3ccccc3)nn2)c1 | 93% | 69% | 76.9% | 10 | 10 |  |  |  |  |
| COC(=O)c1ccc(-n2cc(CN(c3ccc(C(C)=O)cc3)S(=O)(=O)c3ccccc3)nn2)cc1 | 71.8% | 77% | 80.6% | 10 | 10 |  |  |  |  |
| Cc1ccc(-n2cc(CN(c3ccc(C(O)(C(F)(F)F)C(F)(F)F)cc3)S(=O)(=O)c3ccccc3)nn2)cc1 | 48.9% | 74.6% | 71.9% |  | 10 |  |  |  |  |
| CC(=O)c1ccc(N(Cc2cn(-c3ccccc3)nn2)S(=O)(=O)c2ccccc2)cc1 | 114% | 53.4% | 86.3% | 10 |  | Active |  |  |  |
| Cc1ccc(-n2cc(CN(c3ccc(C(O)(C(F)(F)F)C(F)(F)F)cc3)S(=O)(=O)c3ccccc3)nn2)cc1C | 68.7% | 68.7% | 80% | 10 | 10 |  |  |  |  |
| CC(=O)c1ccc(N(Cc2cn(-c3ccc(O)c([N+](=O)[O-])c3)nn2)S(=O)(=O)c2ccccc2)cc1 | 71.3% | 74% | 96.1% | 10 | 10 |  |  |  |  |
| COc1ccc(-n2cc(CN(c3ccc(C(O)(C(F)(F)F)C(F)(F)F)cc3)S(=O)(=O)c3ccccc3)nn2)cc1 | 59.2% | 81.4% | 84.9% | 10 | 10 |  |  |  |  |
| O=S(=O)(c1ccccc1)N(Cc1cn(-c2ccc(F)cc2)nn1)c1ccc(C(O)(C(F)(F)F)C(F)(F)F)cc1 | 36.4% | 70.5% | 51.5% | 10 | 10 |  |  |  |  |
| CCOC(=O)c1ccc(-n2cc(CN(c3ccc(C(O)(C(F)(F)F)C(F)(F)F)cc3)S(=O)(=O)c3ccccc3)nn2)cc1 | 73.8% | 91.3% | 76.5% | 10 | 10 |  |  |  |  |
| CC(=O)c1ccc(N(Cc2cn(-c3cccc(C(C)=O)c3)nn2)S(=O)(=O)c2ccccc2)cc1 | 78.7% | 71% | 84.7% | 10 | 10 |  |  |  |  |
| CC(=O)c1ccc(N(Cc2cn(-c3ccccc3C#N)nn2)S(=O)(=O)c2ccccc2)cc1 | 99% | 86.2% | 91.8% | 10 | 10 |  |  |  |  |
| O=S(=O)(c1ccccc1)N(Cc1cn(-c2cccc(F)c2)nn1)c1ccc(C(O)(C(F)(F)F)C(F)(F)F)cc1 | 29.8% | 90.3% | 56% | 10 | 10 |  |  |  |  |
| CC(=O)c1ccc(N(Cc2cn(-c3ccc(C)cc3)nn2)S(=O)(=O)c2ccccc2)cc1 | 85.8% | 58.6% | 84.1% | 10 | 10 |  |  |  |  |
| CC(=O)c1ccc(N(Cc2cn(-c3ccccc3C(F)(F)F)nn2)S(=O)(=O)c2ccccc2)cc1 | 83.9% | 48.5% | 112% | 10 | 10 |  |  |  | Active |
| O=[N+]([O-])c1ccc(-n2cc(CN(c3ccc(C(O)(C(F)(F)F)C(F)(F)F)cc3)S(=O)(=O)c3ccccc3)nn2)cc1 | 39.6% | 80.6% | 66.2% | 10 | 10 |  |  |  |  |
| CC(=O)c1ccc(-n2cc(CN(c3ccc(C(O)(C(F)(F)F)C(F)(F)F)cc3)S(=O)(=O)c3ccccc3)nn2)cc1 | 42.2% | 81.6% | 70.7% | 10 | 10 |  |  |  |  |
| O=S(=O)(c1ccccc1)N(Cc1cn(-c2ccc(OC(F)(F)F)cc2)nn1)c1ccc(C(O)(C(F)(F)F)C(F)(F)F)cc1 | 43.5% | 67.8% | 68.7% | 10 | 10 |  |  |  |  |
